Test results: patent publication US20250345362A1, “MULTI-IONIC COMPLEX FOR THE PREVENTION OR TREATMENT OF INFLAMMATION” (YNIOS PHARMA, priority 2022, published 2025)

Legend:
[1] = rats; cited from earlier work
sensory neurons [2] = experiment: Myelinated sensory neurons with or without cisplatin: neuron count, neurite length, myelin sheath length (Examples 7 and 8a, curative protocol); assay type: cell-based, rat; settings: for Average percentage of neurite length relative to control / Average percentage of sensory neuron count relative to control: isolated ions + cisplatin (12 μM, 24 h), Table 3
Procedure: Female rats with 15 days gestation were killed by cervical dislocation (Wistar rats; January Lab) and fetuses were removed from the uterus. Embryonic DRGs were collected and placed in an icy medium of Leibovitz 15 (L15; PanBiotech, Ref P04-27055, Batch: 5331021) containing 2% Penicillin-Streptomycin (PS; PanBiotech, ref: P06-07100, Batch: 9300621) and 1% bovine serum albumin (BSA; PanBiotech, ref: P06-1391100, lot: H210207). DRG were dissociated by trypsinization for 20 minutes (min) at 37° C. (Trypsin EDTA 1X; PanBiotech, Ref: P10-023100, Batch: 8600621). The reaction was halted by the addition of Dulbecco's modified Eagle medium (DMEM; PanBiotech, Ref: P04-03600, Batch: 1130721) containing DNase I grade II (0.1 mg/ml; PanBiotech, Ref: P60-37780100, Batch: H181015) and 10% fetal calf serum (FCS; Invitrogen, ref: 10270106, lot: 2319479). The cells were then mechanically dissociated by 3 passes through a 10 ml pipette. The cells were then centrifuged at 180×g for 10 min at +4° C. on a layer of BSA (3.5%) in medium L15. The supernatant was discarded and the cell pellets were resuspended in a defined culture medium consisting of Neurobasal (Invitrogen, Ref: 21103049, Batch: 2348949) supplemented with 2% B27; (Invitrogen, ref: 17504-044, Batch: 2336991), L-glutamine (2 mM; PanBiotech, Ref: P04-80100, Batch: 2770620), 2% PS and 50 ng/mL NGF (Sigma, Ref: N1408, Lot: SLCG2596). The viable cells were then counted in a Neubauer cytometer using the trypan blue exclusion test. The cells were seeded to a density of 12000 cells/wells in 96-well plates (pre-coated with poly-D-lysine; Greiner, Ref: 655940, Lot: E200933A) and were grown at 37° C. in humidified air (95%/CO2 (5%) atmosphere. Half of the middle was changed every 2 days with fresh medium. The cells are maintained for 7 days to allow the proliferation of Schwann cells and sensory neurons. On day 8, the medium is supplemented with 50 μg/mL of ascorbic acid (AA; Sigma, Ref 092902, Batch: 05316HJ-438) to initiate the differentiation of basal Schwann cells into myelinating Schwann cells.
Cis-diammineplatinum(II) dichloride (cisplatin; Sigma, ref: P4394, lot: MKCN8054) was reconstituted in DMSO at 24 mM (stock solution). The control environment was prepared under the same conditions. After 12 days of culture with AA, the primary sensory neurons were pretreated for 2 hours with the compositions of Example 1 or with a reference compound (NGF, 50 ng/ML) and then intoxicated with cisplatin. The cisplatin preparation was used on neurons at a final concentration of 12 μM diluted in control medium for 24 hours of incubation.
In parallel, the effect of isolated or combined ions two by two on the survival of sensory neurons and the length of neurites was also evaluated under the same conditions. The solutions are all prepared from chlorides of the ions tested.
The effect of ion combinations on sensory neuron survival and neurite length was evaluated under the same conditions as described above. The solutions are all prepared from chlorides of the ions tested.

IL-1β = IL-1β in supernatant of LPS-stimulated human mononuclear blood cells; assay type: cell-based; settings: for Results IL-1β (percentage relative to the vehicle): 2 h pretreatment, LPS 100 ng/mL 6 h; for reduction of IL-1β levels, in words: LPS 100 ng/mL, FIG. 7-9
Procedure: (§1) Methods: Mononuclear blood cells are isolated from the blood of healthy donors through Ficoll density gradient (Ficoll-Paque PLUS; GE Healthcare; 11778538) with density gradient centrifuge tubes (SepMate; StemCell Technologies; 85450). The mononuclear blood cells are deposited (200000 cells per well) in 96-well plates, pretreated either with the vehicle (0.179% PBS) or with a composition according to the invention or ions alone (see Table 6) for 2 hours, then stimulated for 6 hours without (vehicle 0.002% H2O) or with lipopolysaccharides (LPS at 100 ng/mL; Invivogen, tlrl-b5lps) at 37° C., 5% C02 in an RPMI medium containing 10% fetal calf serum and 1% penicillin/streptomycin. After 6 hours of incubation, the culture supernatant is collected and stored at −20° C. until cytokine analysis. The level of cytokines (IL-1β and IL-18) is quantified in the culture supernatant by ELISA according to the manufacturer's instructions (R&D Systems; DY201, DY318-05). Table 6 summarizes the percentage of IL-1β and IL-18 cytokines measured for each condition relative to the vehicle (ns: not significant)

sensory neurons [3] = experiment: Myelinated sensory neurons with or without cisplatin: neuron count, neurite length, myelin sheath length (Examples 7 and 8a, curative protocol); assay type: cell-based, rat; settings: without cisplatin (healthy cells), Table 2
IL-18 = IL-18 in supernatant of LPS-stimulated human mononuclear blood cells; assay type: cell-based; settings: for Results IL-18 (percentage relative to the vehicle): 2 h pretreatment, LPS 100 ng/mL 6 h; for reduction of IL-18 levels, in words: LPS 100 ng/mL, FIG. 7-9
Procedure: as §1

sensory neurons [4] = experiment: Myelinated sensory neurons with or without cisplatin: survival, neurite length, myelin sheath length (Example 8b, protection protocol); assay type: cell-based, rat; settings: cisplatin 12 μM, 24 hours
Procedure: The primary endpoint was the measurement of sensory neurons survival, the assessment of neurite length and myelin sheath length of sensory neurons after cisplatin intoxication and without intoxication.
Cis-diammineplatinum (II) dichloride (cisplatin; Sigma, ref: P4394, lot: MKCL0026) was reconstituted in medium at 10 mg/ml (stock solution). The control environment was prepared under the same conditions. After 12 days of culture with AA, primary sensory neurons were pretreated for 2 hours with a 3-concentration multi-ionic complex and then intoxicated with cisplatin. The cisplatin preparation was used on neurons at a final concentration of 12 μM diluted in control medium for 24 hours of incubation.
The concentrations of the multi-ionic complex were: • 1. TA6496: Li 10.37 mmol/kg, Mg 2.27 mmol/kg, K 16.88 mmol/kg • 2. TA6440: Li 5.76 mmol/kg, Mg 1.26 mmol/kg, K 9.38 mmol/kg • 3. TA6415: Li 1.73 mmol/kg, Mg 0.38 mmol/kg, K 2.81 mmol/kg
The following conditions were assessed: • Control medium • Control+cisplatin (12 μM, 24h) • Multi-ionic complex, at 3 different concentrations TA6496, TA6440 or TA6415+cisplatin (12 μM, 24h) • Multi-ionic complex, at 3 different concentrations TA6496, TA6440 or TA6415.
This study was performed with 6 wells per condition and duplicated for validation of results. The data included and analysed are the combined results of the 2 studies. […]

| Compound | intravenous lethal dose 50 (LD50) over 24 hours [1] [mg/kg] | Average percentage of neurite length relative to control (sensory neurons [2]) [%] | Average percentage of sensory neuron count relative to control (sensory neurons [2]) [%] | Results IL-1β (percentage relative to the vehicle) (IL-1β; listed as K - 660 mg/L) [%] | Results IL-1β (percentage relative to the vehicle) (IL-1β; listed as K - 880 mg/L) [%] | reduction of IL-1β levels, in words (IL-1β) | Average percentage of neurite length relative to control (sensory neurons [3]) [%] | Average percentage of sensory neuron count relative to control (sensory neurons [3]) [%] | Results IL-18 (percentage relative to the vehicle) (IL-18; listed as K - 660 mg/L) [%] | Results IL-18 (percentage relative to the vehicle) (IL-18; listed as K - 880 mg/L) [%] | reduction of IL-18 levels, in words (IL-18) | Results IL-1β (percentage relative to the vehicle) (IL-1β; listed as Mg - 55.4 mg/L) [%] | Results IL-1β (percentage relative to the vehicle) (IL-1β; listed as Mg - 73.9 mg/L) [%] | Results IL-18 (percentage relative to the vehicle) (IL-18; listed as Mg - 55.4 mg/L) [%] | Results IL-18 (percentage relative to the vehicle) (IL-18; listed as Mg - 73.9 mg/L) [%] | effect on neurite length, in words (sensory neurons [2]; cisplatin 12 μM, 24 h) | effect on survival of sensory neurons (cisplatin-induced apoptosis), in words (sensory neurons [2]; cisplatin 12 μM, 24 h) | effect on myelin sheath length, in words (sensory neurons [4]) |
| --- | --- | --- | --- | --- | --- | --- | --- | --- | --- | --- | --- | --- | --- | --- | --- | --- | --- | --- |
| [Cl-].[K+] [K, potassium chloride] | 142 | 91 | 58 | 80.52 | 85.31 | Neither magnesium, lithium, nor potassium, alone, demonstrated significant reductions | 115 | 117 | 72.48 | 69.71 | Neither magnesium, lithium, nor potassium, alone, demonstrated significant reductions | – | – | – | – | – | – | – |
| [Cl-].[Cl-].[Mg+2] [Mg, magnesium chloride] | – | 73 | 68 | – | – | Neither magnesium, lithium, nor potassium, alone, demonstrated significant reductions | 98 | 108 | – | – | Neither magnesium, lithium, nor potassium, alone, demonstrated significant reductions | 100.91 | 97.41 | 102.41 | 95.28 | – | – | – |
| [Mn+2] [Manganese] | – | – | – | – | – | – | – | – | – | – | – | – | – | – | – | without demonstrating any significant effect | without demonstrating any significant effect | without demonstrating any significant effect |
